We go through 2 compounds from US20100063080A1, “CXCR2 inhibitors” (priority 2006, published 2010).

This assay addresses T1, human CXCR2 receptor (Homo sapiens, UniProt P25025).
T1 construct: purchased Biosignal Packard Inc; host or cells: CHO-K1 membranes
T1 sequence (P25025 1-360): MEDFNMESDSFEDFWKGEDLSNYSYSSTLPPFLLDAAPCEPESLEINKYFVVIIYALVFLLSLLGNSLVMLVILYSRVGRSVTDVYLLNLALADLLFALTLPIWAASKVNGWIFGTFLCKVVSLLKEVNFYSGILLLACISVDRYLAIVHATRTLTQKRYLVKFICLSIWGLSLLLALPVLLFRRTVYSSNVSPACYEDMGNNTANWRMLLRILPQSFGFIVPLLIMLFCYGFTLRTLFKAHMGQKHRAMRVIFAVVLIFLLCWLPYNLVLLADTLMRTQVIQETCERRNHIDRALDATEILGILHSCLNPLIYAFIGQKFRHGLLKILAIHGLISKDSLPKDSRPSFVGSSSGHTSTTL
The experiment in a line: [35S]-GTPγS binding assay for human CXCR2 receptor using SPA technology. Type of assay: biochemical. The following applies: CHO-K1 membranes expressing human CXCR2; 100 nM IL-8; read-out: IC50 in the [35S]-GPTγS binding assay. The source says:
[^35S]-GTPγS Binding Assay for Human CXCR2 Receptor using SPA Technology
[^35S]-GTPγS (with specific activity 1082 Ci/mmol) and wheat germ agglutinin poly vinyl toluene scintillation proximity beads are purchased from Amersham Pharmacia Biotech. The Chinese hamster ovary cell (CHO-K1) membranes expressing human CXCR2 receptors are purchased from Biosignal Packard Inc. All other chemicals are of analytical grade. White non-binding surface 96 well Optiplate™ microplates are obtained from Packard. Recombinant human IL-8 is synthesised, cloned and expressed in Escherichia coli as described previously (Lindley I, et al., Proc. Natl. Acad. Sci., 1988, 85(23):9199). The assay is performed in duplicate in 96 well Optiplate™ microplate in a final volume of 250 μl per well. Compounds are diluted in DMSO (0.5% final concentration) and incubated in 20 mM HEPES buffer pH 7.4 containing 10 mM MgCl2, 100 mM NaCl, 1 mM EDTA plus 100 nM IL-8, 50 μM GDP and […] [^35S]GTPγS per well. SPA beads (1 mg/well final concentration) were pre-mixed with the membranes (10 μg/well final concentration) in assay buffer: 20 mM HEPES buffer pH 7.4 containing 10 mM MgCl2, 100 mM NaCl, 1 mM EDTA. […] The plate is centrifuged and read on Packard TopCount™ scintillation counter, program [^35S dpm] for 1 min/well. Data are expressed as the % response to 100 nM IL-8 minus basal.
On the technique in general: GTPγS is a poorly hydrolysed GTP analogue; its binding reports G protein activation.

Structures are written as SMILES.

A word on the IC50: it is the concentration that inhibits the measured activity by half.

For `CCOC(=O)CNC(=O)[C@@H]1C[C@H]1c1nc(SCc2cccc(F)c2F)nc(O)c1C#N` (relative stereo) [Example 49, Trans-({2-[5-Cyano-2-(2,3-difluoro-benzylsulfanyl)-6-hydroxy-pyrimidin-4-yl]-cyclopropanecarbonyl}-amino)-acetic acid ethyl ester], the IC50 worked out at 820 nM.

`CCC1CCCN1C(=O)C1CC1c1nc(SCc2cccc(F)c2F)nc(O)c1C#N` (centres unmarked) [Example 43, 2-(2,3-Difluoro-benzylsulfanyl)-4-[2-(2-ethyl-pyrrolidine-1carbonyl)-cyclopropyl]-6-hydroxypyrimidine-5-carbonitrile]: the IC50 was 230 nM.
